In patent US6608086B2, “Dihydropyridines and new uses thereof” (Synaptic Pharmaceutical Corporation, priority 1993, dated 2003):
Where a name gives a salt, the structure may show the parent alone.

Key:
[1] = target: T1, α1B Human Adrenergic Receptor (Homo sapiens, UniProt P35368); assay: Radioligand binding, [3H]prazosin, cloned human α1B adrenergic receptor; conditions: cloned human receptor in LM(tk-) cell membranes, SEM and n in lines below; for Ki: read-out: pKi alpha-1 1b (converted)
T1 construct: The entire coding region of α1B (1563 bp); expressed in transfected cells
T1 sequence (P35368 1-520): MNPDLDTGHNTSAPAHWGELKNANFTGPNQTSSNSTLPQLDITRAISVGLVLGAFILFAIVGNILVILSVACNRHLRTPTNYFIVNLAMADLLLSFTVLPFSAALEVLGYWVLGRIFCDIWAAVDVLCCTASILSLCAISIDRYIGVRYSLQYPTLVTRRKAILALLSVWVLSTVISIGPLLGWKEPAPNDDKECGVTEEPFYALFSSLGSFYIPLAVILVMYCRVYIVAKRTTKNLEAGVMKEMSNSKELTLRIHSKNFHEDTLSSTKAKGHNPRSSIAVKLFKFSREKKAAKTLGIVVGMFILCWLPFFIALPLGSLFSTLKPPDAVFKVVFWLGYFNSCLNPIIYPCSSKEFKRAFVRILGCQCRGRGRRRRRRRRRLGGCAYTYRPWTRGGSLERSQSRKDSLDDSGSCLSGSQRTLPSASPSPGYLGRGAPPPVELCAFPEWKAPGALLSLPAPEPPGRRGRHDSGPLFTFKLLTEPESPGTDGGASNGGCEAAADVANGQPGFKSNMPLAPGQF
Method in brief: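 [3H]prazosin (0.5 nM) binding was run for 20 min at 37° C in pH 7.5 Tris/MgCl2/ascorbate buffer on membranes of LM(tk−) cells stably expressing the cloned receptor. Filtration through GF/B ended the reaction; 10 μM phentolamine gave nonspecific binding.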

[2] = target: T2, α2A receptor (Homo sapiens, UniProt P08913); assay: Competition binding, [3H]rauwolscine, human α2A receptor; conditions: [3H]rauwolscine, LM(tk-) cell line L-α2A, SEM and n in lines below; for Ki: read-out: pKi alpha-2 2a (converted)
T2 construct: host or cells: LM(tk-) cells, line L-α2A
T2 sequence (P08913 1-465): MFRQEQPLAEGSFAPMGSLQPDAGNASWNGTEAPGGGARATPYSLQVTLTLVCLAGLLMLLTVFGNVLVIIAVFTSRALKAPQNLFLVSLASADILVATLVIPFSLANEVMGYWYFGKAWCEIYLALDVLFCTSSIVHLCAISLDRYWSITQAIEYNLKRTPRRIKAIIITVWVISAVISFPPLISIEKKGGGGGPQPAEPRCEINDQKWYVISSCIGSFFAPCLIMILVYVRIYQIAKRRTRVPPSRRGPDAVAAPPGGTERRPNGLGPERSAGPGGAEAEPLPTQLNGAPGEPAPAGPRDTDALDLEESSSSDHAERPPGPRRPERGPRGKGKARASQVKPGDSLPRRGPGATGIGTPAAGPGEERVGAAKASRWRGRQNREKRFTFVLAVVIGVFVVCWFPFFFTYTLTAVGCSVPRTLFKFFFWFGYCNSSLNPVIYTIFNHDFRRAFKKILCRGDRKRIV
Method in brief: (§1)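 Using 25 mM glycylglycine buffer at pH 7.6 (room temperature), membranes from LM(tk−) cells carrying α2A, α2B or α2C were competed against 0.5 nM [3H]rauwolscine to equilibrium. Separation was by GF/B filtration; phentolamine (10 μM) set nonspecific binding.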

[3] = target: T3, α2B receptor (Homo sapiens, UniProt P18089); assay: Competition binding, [3H]rauwolscine, human α2B receptor; conditions: [3H]rauwolscine, LM(tk-) cell line L-NGC-α2B, SEM and n in lines below; for Ki: read-out: pKi alpha-2 2b (converted)
T3 construct: host or cells: LM(tk-) cells, line L-NGC-α2B
T3 sequence (P18089 1-450): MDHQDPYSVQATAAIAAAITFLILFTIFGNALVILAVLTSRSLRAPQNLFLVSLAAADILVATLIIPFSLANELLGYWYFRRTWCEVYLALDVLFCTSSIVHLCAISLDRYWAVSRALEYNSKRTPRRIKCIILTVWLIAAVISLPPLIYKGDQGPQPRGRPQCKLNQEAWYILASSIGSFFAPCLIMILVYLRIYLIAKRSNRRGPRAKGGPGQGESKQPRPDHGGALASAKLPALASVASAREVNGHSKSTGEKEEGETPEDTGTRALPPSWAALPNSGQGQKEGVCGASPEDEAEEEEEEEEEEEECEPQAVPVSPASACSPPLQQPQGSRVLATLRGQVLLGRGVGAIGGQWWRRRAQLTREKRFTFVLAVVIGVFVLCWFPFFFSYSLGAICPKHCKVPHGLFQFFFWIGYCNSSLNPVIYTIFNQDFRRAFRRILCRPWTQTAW
Method in brief: as §1

[4] = target: T4, α2C receptor (Homo sapiens, UniProt P18825); assay: Competition binding, [3H]rauwolscine, human α2C receptor; conditions: [3H]rauwolscine, LM(tk-) cell line L-α2C, SEM and n in lines below; for Ki: read-out: pKi alpha-2 2c (converted)
T4 construct: host or cells: LM(tk-) cells, line L-α2C
T4 sequence (P18825 1-462): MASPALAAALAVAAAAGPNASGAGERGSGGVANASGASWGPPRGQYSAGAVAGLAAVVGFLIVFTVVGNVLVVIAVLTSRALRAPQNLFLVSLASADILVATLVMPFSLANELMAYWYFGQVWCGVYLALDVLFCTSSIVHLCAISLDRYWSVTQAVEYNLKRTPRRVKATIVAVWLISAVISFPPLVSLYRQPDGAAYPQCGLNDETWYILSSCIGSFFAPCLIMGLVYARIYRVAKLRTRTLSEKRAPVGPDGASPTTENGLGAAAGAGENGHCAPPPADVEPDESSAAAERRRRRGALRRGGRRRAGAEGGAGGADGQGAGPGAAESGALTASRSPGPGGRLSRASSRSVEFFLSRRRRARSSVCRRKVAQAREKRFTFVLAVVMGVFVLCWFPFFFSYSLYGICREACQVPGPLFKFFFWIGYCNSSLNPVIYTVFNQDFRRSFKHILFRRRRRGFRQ
Method in brief: as §1

Row | Compound | Ki [1] [nM] | Ki [2] [nM] | Ki [3] [nM] | Ki [4] [nM] | pKi alpha-1 1b [1] | pKi alpha-2 2a [2] | pKi alpha-2 2b [3] | pKi alpha-2 2c [4]
1 | COC(=O)C1=C(C)NC(C)=C(C(=O)OCCCN2CCCCC2)C1c1ccc([N+](=O)[O-])cc1 (centres unmarked) [Example 50, 1,4-Dihydro-5-methoxycarbonyl-2,6-dimethyl-4-(4-nitrophenyl)-3-[3-(piperidin-1-yl)propoxy]carbonylpyridine hydrochloride etherate] | 3020 | 1510 | 2750 | 661 |  |  |  | 
2 | COC(=O)C1=C(C)NC(C)=C(C(=O)NCCCN2CCCCC2)C1c1ccc([N+](=O)[O-])cc1 (centres unmarked) [Example 51, 1,4-Dihydro-3-methoxycarbonyl-2,6-dimethyl-4-(4-nitrophenyl)-5-{N-[3-(piperidin-1-yl)propyl]}carboxamidopyridine hydrochloride etherate] | 5010 | 447 | 513 | 251 |  |  |  | 
3 | COC(=O)C1=C(C)NC(C)=C(C(=O)NCCCCN2CCC(c3ccccc3)(c3ccccc3)CC2)C1c1ccc([N+](=O)[O-])cc1.Cl.O (centres unmarked) [Example 53, 1,4-Dihydro-3-methoxycarbonyl-2,6-dimethyl-4-(4-nitrophenyl)-5-{N-[4-(4,4-diphenylpiperidin-1-yl)butyl]}carboxamidopyridine hydrochloride hydrate] |  |  |  |  | 6.87 | 6.18 | 6.34 | 6.67
4 | COC(=O)C1=C(C)NC(C)=C(C(=O)NCCCN2CCc3cc(OC)c(OC)cc3C2)C1c1ccc([N+](=O)[O-])cc1 (centres unmarked) [Example 57, 1,4-Dihydro-3-methoxycarbonyl-5-{N-[3-(1,2,3,4-tetrahydro-6,7-dimethoxyisoquinolin-2-yl)propyl]}carboxamido-2,6-dimethyl-4-(4-nitrophenyl)pyridine hydrochloride hydrate] | 1230 | 195 | 1860 | 158 |  |  |  | 
5 | COc1cc2c(cc1OC)CN(CCCNC(=O)C1=C(C)NC(C)=C(C(N)=O)C1c1ccc([N+](=O)[O-])cc1)CC2 (centres unmarked) [Example 58, 5-Carboxamido-1,4-dihydro-3-{N-[3-(1,2,3,4-tetrahydro-6,7-dimethoxyisoquinolin-2-yl)propyl]}carboxamido-2,6-dimethyl-4-(4-nitrophenyl)pyridine hydrochloride] | 2290 | 8.32 | 1450 | 50.1 |  |  |  | 
6 | CC1=C(C(N)=O)C(c2ccc([N+](=O)[O-])cc2)C(C(=O)NCCCN2CCC(c3ccccc3)CC2)=C(C)N1 (centres unmarked) [Example 60, 5-Carboxamido-1,4-dihydro-2,6-dimethyl-4-(4-nitrophenyl)-3-{N-[3-(4-phenylpiperidin-1-yl)propyl]}carboxamidopyridine] | 77.6 | 5.5 | 69.2 | 67.6 |  |  |  | 
7 | CC1=C(C(N)=O)C(c2cccc([N+](=O)[O-])c2)C(C(=O)NCCCN2CCC(c3ccccc3)CC2)=C(C)N1 (centres unmarked) [Example 62] | 316 | 24.5 | 57.5 | 49 |  |  |  | 
8 | CC1=C(C(N)=O)C(c2ccc([N+](=O)[O-])cc2)C(C(=O)NC2CCN(Cc3ccccc3)CC2)=C(c2ccoc2)N1.Cl.O (centres unmarked) [Example 66] |  |  |  |  | 5.36 | 5.53 | 5.35 | 6.24
9 | COc1cc2c(c(OC)c1)CCN(CCCNC(=O)C1=C(c3ccoc3)NC(C)=C(C(N)=O)C1c1ccc([N+](=O)[O-])cc1)C2.Cl.O (centres unmarked) [Example 67] |  |  |  |  | 6.18 | 6.45 | 5.79 | 7.00
10 | CCC1=C(C(=O)NCCCN2CCc3cc(OC)c(OC)cc3C2)C(c2ccc([N+](=O)[O-])cc2)C(C(N)=O)=C(C)N1.Cl.O (centres unmarked) [Example 76, 5-Carboxamido-2-ethyl-1,4-dihydro-3-(N-(3-(1,2,3,4-tetrahydro-6,7-dimethoxyisoquinolin-2-yl)propyl)) carboxamido-6-methyl-4-(4-nitro)phenylpyridine hydrochloride hydrate] |  |  |  |  | 5.88 | 6.96 | 5.64 | 7.70

More lines, main results first:

Row | Ki [1] [nM] | Ki [2] [nM] | Ki [3] [nM] | Ki [4] [nM] | Compound | pKi alpha-1 1b [1] | pKi alpha-2 2a [2] | pKi alpha-2 2b [3] | pKi alpha-2 2c [4]
11 | 18.6 | 955 | 132 | 170 | CC1=C(C(=O)NCCCN2CCC(c3ccccc3)CC2)C(c2ccc([N+](=O)[O-])cc2)c2c([nH]c(=O)[nH]c2=O)N1 (centres unmarked) [Example 63, 1,4-Dihydro-6-methyl-4-(4-nitrophenyl)-5-{N-[3-(4-phenylpiperidin-1-yl)propyl]}carboxamido-[2,3, d]uracilylpyridine] |  |  |  | 
12 | 57.5 | 200 | 97.7 | 83.2 | COC(=O)C1=C(C)NC(c2ccoc2)=C(C(=O)NCCCN2CCC(c3ccccc3)CC2)C1c1ccc([N+](=O)[O-])cc1 (centres unmarked) [Example 65, 2-(Furan-3-yl)-1,4-dihydro-5-methoxycarbonyl-6-methyl-4-(4-nitrophenyl)-5-{N-[3-(4-phenylpiperidin-1-yl)propyl]}carboxamidopyridine hydrochloride hydrate] |  |  |  | 
13 | 19.1 | 58.9 | 89.1 | 23.4 | CCC1=C(C(=O)NCCCN2CCC(c3ccccc3)CC2)C(c2ccc([N+](=O)[O-])cc2)C(C(=O)OC)=C(C)N1 (centres unmarked) [Example 74, 2-Ethyl-1,4-dihydro-5-methoxycarbonyl-6-methyl-4-(4-nitro)phenyl-3-(N-(3-(4-phenylpiperidin-1-yl)propyl)) carboxamidopyridine hydrochloride hydrate] |  |  |  | 
14 | 3890 | 2880 | 3090 | 1230 | CCC1=C(C(=O)NC2CCN(Cc3ccccc3)CC2)C(c2ccc([N+](=O)[O-])cc2)C(C(=O)OC)=C(C)N1 (centres unmarked) [Example 75, 2-Ethyl-1,4-dihydro-5-methoxycarbonyl-6-methyl-4-(4-nitro)phenyl-3-(N-(N-phenylmethyl)piperidin-4-yl)carboxamidopyridine hydrochloride] |  |  |  | 
